Values after ≈ are worked out from the molar mass of the structure shown. Values joined by “and” are separate entries in the source; they are usually repeats but may differ in a detail not shown here. Equal values may be shown once. Read-outs that look alike come from different tables or passages of the source.
Tests used:
[1] = tested on: Salmonella typhimurium (TA1535, TA1537, TA98 and TA100); type: cell-based
Method: Ames assays were performed using four strains of Salmonella typhimurium (TA1535, TA1537, TA98 and TA100) and a single strain of E. coli (WRP2 uvrA) in the presence and absence of S9 tissue homogenate. Dose levels (µg/plate) up to 4000 were assessed for WP2 uvrA and TA98, 500 for TA1535, 250 for TA1537 and 62.5 for TA100.

S. aureus = experiment: MIC determination for S. aureus, broth dilution; type: cell-based; details: Staphylococcus aureus, ATCC29213; S. aureus ATCC 29213
[2] = target: recombinant NgFabI protein (Neisseria gonorrhoeae, UniProt A0ACH0F547); experiment: biochemical
Chain of recombinant NgFabI protein (A0ACH0F547 entry or part of it): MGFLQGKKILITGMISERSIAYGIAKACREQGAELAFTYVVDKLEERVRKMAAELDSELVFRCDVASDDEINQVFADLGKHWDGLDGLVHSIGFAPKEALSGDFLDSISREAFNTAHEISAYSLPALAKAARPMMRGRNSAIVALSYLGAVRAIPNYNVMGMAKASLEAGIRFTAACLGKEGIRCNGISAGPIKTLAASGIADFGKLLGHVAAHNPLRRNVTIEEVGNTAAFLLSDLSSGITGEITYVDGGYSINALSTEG
Method: FabI activity was monitored by measuring NADH consumption. […] To initiate reactions, 50 µM NADH was added, and absorbance was monitored at 340 nm every 12 s for a total of 40 min using a Spectramax Plus 384 plate reader (Molecular Devices) at a controlled temperature of 30 °C. Data were analysed using the XLfit Microsoft Excel plugin (version 5.5). IC50 values were determined using a logistic sigmoid curve-fitting of the inhibitor dose response curves.

[3] = TA98, without S9, 62.5 µg/plate
[4] = TA100, without S9, 15.6 µg/plate
[5] = TA100, without S9, 31.3 µg/plate
[6] = TA1535, without S9, 10 µg/plate
[7] = TA1535, without S9, 15.6 µg/plate
[8] = TA1535, without S9, 31.3 µg/plate
[9] = TA1535, without S9, 62.5 µg/plate
[10] = TA1535, without S9, 250 µg/plate
[11] = TA1537, without S9, 10 µg/plate
[12] = TA1537, without S9, 15.6 µg/plate
[13] = TA1537, without S9, 31.3 µg/plate
[14] = TA1537, without S9, 62.5 µg/plate

Method for human hepatocytes: Pooled human hepatocytes from 10-donor males (BioIVT, West Sussex, UK; MX008001) or 10-donor females (BioIVT, West Sussex, UK; FX008001) were incubated with test compounds (or vehicle) and the compound concentration was measured over time. Samples were incubated at 37 °C and concentrations were assessed after 0, 20-, 40-, 60- and 240-min. Verapamil was included as a control.
The instrument operated in positive ionisation mode (ESI + ) over a m/z range of 80–1000 (n = 1 measure per sample). Data were extracted from chromatograms using calculated monoisotopic accurate masses for protonated molecular ions within 5 ppm windows.

With Cc1c(CN(C)C(=O)/C=C/c2cnc3c(c2)N[C@H](C)[C@H](OP(=O)([O-])[O-])C(=O)N3)oc2ccccc12.[Na+].[Na+] [Debio 1453 P] the “Intrinsic clearance (Clint)” value (human hepatocytes) was under 0.44 µL/min/million cells, the “Ames bacterial mutation assessment, Mean” value ([1]; TA98, with S9, 62.5 µg/plate) was 34 and the Colony count ([1]; TA98, with S9, 62.5 µg/plate) was 35 and 36 and 30. The “Ames bacterial mutation assessment, Mean” value ([1]; TA98, with S9, 250 µg/plate) was 26, the Colony count ([1]; TA98, with S9, 250 µg/plate) was 28 and 26 and 23 and the “Ames bacterial mutation assessment, Mean” value ([1]; TA98, with S9, 500 µg/plate) was 12. The Colony count ([1]; TA98, with S9, 500 µg/plate) was 14 and 12 and 11, the “Ames bacterial mutation assessment, Mean” value [1, 3] was 32 and the Colony count [1, 3] was 36 and 29 and 32. The “Ames bacterial mutation assessment, Mean” value ([1]; TA98, without S9, 250 µg/plate) was 22, the Colony count ([1]; TA98, without S9, 250 µg/plate) was 24 and 21 and 20 and the “Ames bacterial mutation assessment, Mean” value ([1]; TA98, without S9, 500 µg/plate) was 12. For the same compound, the Colony count ([1]; TA98, without S9, 500 µg/plate) was 12 and 13 and 10, the “Ames bacterial mutation assessment, Mean” value ([1]; TA100, with S9, 5 µg/plate) was 141 and the Colony count ([1]; TA100, with S9, 5 µg/plate) was 143 and 140 and 141. For the same compound, the “Ames bacterial mutation assessment, Mean” value ([1]; TA100, with S9, 10 µg/plate) was 128, the Colony count ([1]; TA100, with S9, 10 µg/plate) was 123 and 133 and 128 and the “Ames bacterial mutation assessment, Mean” value ([1]; TA100, with S9, 15.6 µg/plate) was 60. For the same compound, the Colony count ([1]; TA100, with S9, 15.6 µg/plate) was 57 and 59 and 64, the “Ames bacterial mutation assessment, Mean” value ([1]; TA100, with S9, 31.3 µg/plate) was 30 and the Colony count ([1]; TA100, with S9, 31.3 µg/plate) was 30 and 29 and 32. For the same compound, the “Ames bacterial mutation assessment, Mean” value ([1]; TA100, without S9, 5 µg/plate) was 146, the Colony count ([1]; TA100, without S9, 5 µg/plate) was 146 and 143 and 149 and the “Ames bacterial mutation assessment, Mean” value ([1]; TA100, without S9, 10 µg/plate) was 134. The Colony count ([1]; TA100, without S9, 10 µg/plate) was 125 and 145 and 131, the “Ames bacterial mutation assessment, Mean” value [1, 4] was 59 and the Colony count [1, 4] was 66 and 54 and 58. For the same compound, the “Ames bacterial mutation assessment, Mean” value [1, 5] was 33, the Colony count [1, 5] was 32 and 31 and 36 and the “Ames bacterial mutation assessment, Mean” value ([1]; TA1535, with S9, 10 µg/plate) was 18. For the same compound, the Colony count ([1]; TA1535, with S9, 10 µg/plate) was 19 and 16, the “Ames bacterial mutation assessment, Mean” value ([1]; TA1535, with S9, 15.6 µg/plate) was 15 and the Colony count ([1]; TA1535, with S9, 15.6 µg/plate) was 18 and 14. For the same compound, the “Ames bacterial mutation assessment, Mean” value ([1]; TA1535, with S9, 31.3 µg/plate) was 16, the Colony count ([1]; TA1535, with S9, 31.3 µg/plate) was 17 and 16 and 14 and the “Ames bacterial mutation assessment, Mean” value ([1]; TA1535, with S9, 62.5 µg/plate) was 14. The Colony count ([1]; TA1535, with S9, 62.5 µg/plate) was 15 and 12 and 16, the “Ames bacterial mutation assessment, Mean” value ([1]; TA1535, with S9, 250 µg/plate) was 6 and the Colony count ([1]; TA1535, with S9, 250 µg/plate) was 5 and 7. For the same compound, the “Ames bacterial mutation assessment, Mean” value ([1]; TA1535, with S9, 500 µg/plate) was 5, the Colony count ([1]; TA1535, with S9, 500 µg/plate) was 6 and 5 and the “Ames bacterial mutation assessment, Mean” value [1, 6] was 19. The Colony count [1, 6] was 18 and 21, the “Ames bacterial mutation assessment, Mean” value [1, 7] was 17 and the Colony count [1, 7] was 17 and 16. The “Ames bacterial mutation assessment, Mean” value [1, 8] was 13, the Colony count [1, 8] was 14 and 13 and the “Ames bacterial mutation assessment, Mean” value [1, 9] was 11. For the same compound, the Colony count [1, 9] was 11 and 12, the “Ames bacterial mutation assessment, Mean” value [1, 10] was 6 and the Colony count [1, 10] was 6 and 8 and 4. The “Ames bacterial mutation assessment, Mean” value ([1]; TA1535, without S9, 500 µg/plate) was 4, the “Ames bacterial mutation assessment, Mean” value ([1]; TA1537, with S9, 10 µg/plate) was 17 and the Colony count ([1]; TA1537, with S9, 10 µg/plate) was 16 and 19. For the same compound, the “Ames bacterial mutation assessment, Mean” value ([1]; TA1537, with S9, 15.6 µg/plate) was 18, the Colony count ([1]; TA1537, with S9, 15.6 µg/plate) was 19 and 16 and 18 and the “Ames bacterial mutation assessment, Mean” value ([1]; TA1537, with S9, 31.3 µg/plate) was 10. The Colony count ([1]; TA1537, with S9, 31.3 µg/plate) was 10 and 11 and 9, the “Ames bacterial mutation assessment, Mean” value [1, 11] was 19 and the Colony count [1, 11] was 17 and 20 and 19. For the same compound, the “Ames bacterial mutation assessment, Mean” value [1, 12] was 18, the Colony count [1, 12] was 19 and 20 and 16 and the “Ames bacterial mutation assessment, Mean” value [1, 13] was 15. The Colony count [1, 13] was 16 and 14, the “Ames bacterial mutation assessment, Mean” value [1, 14] was 7 and the Colony count [1, 14] was 8 and 6. The Ames assay result ([1]; presence and absence of S9, highest concentrations tested) was “non-mutagenic”.

Cc1c(CN(C)C(=O)/C=C/c2cnc3c(c2)N[C@H](C)[C@H](O)C(=O)N3)oc2ccccc12 [Debio 1453] showed an MIC (S. aureus) of 8 ng/mL (≈ 0.019 µM) and an IC50 [2] of 0.6 nM.

Reference: PMC12446476 (Nature Communications, 2025)
